Test results: patent US20170071235A1 (priority 2014, published 2017)

Legend:
[1] = test system: TNF-α secretion produced by PMA-differentiated macrophages; type: cell-based, human
[2] = test system: IL-1β secretion produced by PMA-differentiated macrophages; type: cell-based, human
[3] = thiol group; cited from earlier work

SMILES	effect on proliferation of THP-1 monocytes (THP-1 monocytes)	TNF-α secretion [1]	IL-1β response [2]	release of IL-1β [2]	pKa [3]
CC1=C[C@H]2O[C@@H]3[C@H](O)C[C@](C)([C@@]2(CO)[C@H](O)C1=O)[C@]31CO1 [DON, deoxynivalenol]	decreased the proliferation	increase in TNF-α	did not show an IL-1β response	increased the release of IL-1β	
C=C1[C@@H]2O[C@@H]3C=C(C)C(=O)[C@@H](O)[C@]3(CO)[C@@]1(C)C[C@H]2O [deepoxy-DON]	did not			did not	
OCCS [mercaptoethanol, 2-mercaptoethanol]					~9.6
